Data on 6 molecules can be found in patent publication US10544142B2, “Crystal forms of palbociclib, and preparation method and use therefor” (SHANGHAI BEGREAT PHARMATECH, priority 2016, dated 2020).

Series [1] is described as follows: Solubility of crystal Forms in pH 6.8 buffer (1 hour equilibration, filtration, HPLC). The format is physicochemical. As to conditions: for Solubility in pH 6.8 buffer: 20 mg in 1 mL, equilibrated for 1 hour, 0.45 μm filter, HPLC; for solubility in pH 6.8 buffer compared to existing crystal Forms: comparison with crystal Forms A and B. The method, then:
The solubility of several new crystal Forms prepared in the above examples and Form A and B (prepared according to the method of WO2014128588A1) in a pH buffer solution (pH 6.8) was determined. 20 mg Form VIII, Form IX, Form XIV, Form A and Form B was precisely weighed and placed in a 2-mL glass vial, 1 mL of pH 6.8 buffer was added, sealed with cap, and mixed on a rotating mixer. After the suspension was equilibrated for 1 hour, the mixture was filtered through a 0.45 μm needle filter, and the concentration of 6-Acetyl-8-cyclopentyl-5-methyl-2-(5-piperazin-1-yl-pyridin-2-ylamino)-8H-pyrido[2,3-d]pyrimidin-7-one in the filtrate was analyzed by HPLC to obtain the solubility of different crystal Forms. The solubility of the polymorphs of 6-Acetyl-8-cyclopentyl-5-methyl-2-(5-piperazin-1-yl-pyridin-2-ylamino)-8H-pyrido[2,3-d]pyrimidin-7-one is shown in the following table: […]

For series [2] the following is noted: prior art statement; cited from earlier work.
Series [3] is described as follows: Dissolution rate in pH 6.8 buffer. The format is physicochemical. The conditions noted are these: comparison with crystal Forms A and B.

With `CC(=O)c1c(C)c2cnc(Nc3ccc(N4CCNCC4)cn3)nc2n(C2CCCC2)c1=O` [Form A, 6-Acetyl-8-cyclopentyl-5-methyl-2-(5-piperazin-1-yl-pyridin-2-ylamino)-8H-pyrido[2,3-d]pyrimidin-7-one, reference compound], the “Solubility in pH 6.8 buffer” value in series [1] is 0.002 mg/mL. Moreover, in series [2], the solubility in water entry was “very small”.

For `CC(=O)c1c(C)c2cnc(Nc3ccc(N4CCNCC4)cn3)nc2n(C2CCCC2)c1=O` [Form B, 6-Acetyl-8-cyclopentyl-5-methyl-2-(5-piperazin-1-yl-pyridin-2-ylamino)-8H-pyrido[2,3-d]pyrimidin-7-one, reference compound], the “Solubility in pH 6.8 buffer” value in series [1] is given as 0.003 mg/mL. Also, in series [2], the solubility in water result is reported as “very small”.

For `CC(=O)c1c(C)c2cnc(Nc3ccc(N4CCNCC4)cn3)nc2n(C2CCCC2)c1=O` [Form IX, 6-Acetyl-8-cyclopentyl-5-methyl-2-(5-piperazin-1-yl-pyridin-2-ylamino)-8H-pyrido[2,3-d]pyrimidin-7-one], the “Solubility in pH 6.8 buffer” value in series [1] is listed as 0.015 mg/mL.

Turning to `CC(=O)c1c(C)c2cnc(Nc3ccc(N4CCNCC4)cn3)nc2n(C2CCCC2)c1=O` [Form VIII, 6-Acetyl-8-cyclopentyl-5-methyl-2-(5-piperazin-1-yl-pyridin-2-ylamino)-8H-pyrido[2,3-d]pyrimidin-7-one], in series [1], the “Solubility in pH 6.8 buffer” value stood at 0.010 mg/mL; the “solubility in pH 6.8 buffer compared to existing crystal Forms” value is “greater than the existing crystal Forms A and B”. For the same molecule, in series [3], the “dissolution rate in pH 6.8 buffer compared to existing crystal Forms” value is “greater than the existing crystal Forms A and B”.

`CC(=O)c1c(C)c2cnc(Nc3ccc(N4CCNCC4)cn3)nc2n(C2CCCC2)c1=O` [Form XI, 6-Acetyl-8-cyclopentyl-5-methyl-2-(5-piperazin-1-yl-pyridin-2-ylamino)-8H-pyrido[2,3-d]pyrimidin-7-one]: the “solubility in pH 6.8 buffer compared to existing crystal Forms” value in series [1] was “greater than the existing crystal Forms A and B”. Also, in series [3], the “dissolution rate in pH 6.8 buffer compared to existing crystal Forms” value is “greater than the existing crystal Forms A and B”.

On to `CC(=O)c1c(C)c2cnc(Nc3ccc(N4CCNCC4)cn3)nc2n(C2CCCC2)c1=O` [Form XIV, 6-Acetyl-8-cyclopentyl-5-methyl-2-(5-piperazin-1-yl-pyridin-2-ylamino)-8H-pyrido[2,3-d]pyrimidin-7-one], for which, in series [1], the “Solubility in pH 6.8 buffer” value is reported as 0.012 mg/mL; the “solubility in pH 6.8 buffer compared to existing crystal Forms” value is “greater than the existing crystal Forms A and B”. Also, in series [3], the “dissolution rate in pH 6.8 buffer compared to existing crystal Forms” value is “greater than the existing crystal Forms A and B”.
